The values below come from patent US20110230359A1, “LABEL-FREE ON-TARGET PHARMACOLOGY METHODS” (priority 2010, published 2011).

Each structure is given as a SMILES string.

One experiment concerns EGFR. Nature of the experiment: modulation profiling DMR assay, marker EGF, A431 cells. It is filed as cell-based, human. Particulars: 10 μM salbutamol pretreatment ~1 hr, 32 nM epidermal growth factor.
Another experiment has as its system GPR109A. Nature of the experiment: modulation profiling DMR assay, marker nicotinic acid, A431 cells. It is filed as cell-based, human. Particulars: 10 μM salbutamol pretreatment ~1 hr, 1 μM nicotinic acid.

For `CC(C)(C)NCC(O)c1ccc(O)c(CO)c1` (centres unmarked) [salbutamol], the “modulation of EGF DMR (P-DMR and N-DMR)” value in the experiment with EGFR is reported as “little impact”. The “modulation of nicotinic acid DMR (P-DMR)” value with GPR109A is “potentiates”.
